Type in all cases: functional
Test [1] can be described thus: Antioxidant activity assessed as inhibition of fenton reaction-induced pBR322 DNA single strand break by CAS assay.
The nature of test [2]: Antioxidant activity assessed as inhibition of fenton reaction-induced pBR322 DNA single strand break by agarose gel electrophoresis.
Test [3] concerns Radical scavenging activity. Briefly: Antioxidant activity assessed as DPPH radical scavenging activity.
The nature of test [4]: Antioxidant activity assessed as ABTS radical scavenging activity.

Calls of active or inactive are those of the source. The rule behind the calls is not given here.

Take `COC(=O)CC1=CC(=O)[C@H](c2c(O)cc(/C=C/c3ccc(O)c(O)c3)oc2=O)[C@@H](c2ccc(O)c(O)c2)O1` [BAUMIN]: the outcome in test [1] and in test [2] was Active. The values for the IC50 in test [3] and in test [4] were 7.5 µM and 11.7 µM, respectively.

For the molecule `O=c1oc2cc(/C=C/c3ccc(O)c(O)c3)oc(=O)c2c2cc(O)c(O)cc12`, the result in test [1] and in test [2] was Active.

On to `O=c1cc(O)cc([C@H]2c3c(cc(/C=C/c4ccc(O)c(O)c4)oc3=O)O[C@@H]2c2ccc(O)c(O)c2)o1`, for which the result in test [1] and in test [2] was Active.

Take `CC1=CC(=O)C2(O1)c1c(cc(/C=C/c3ccc(O)c(O)c3)oc1=O)OC2c1ccc(O)c(O)c1` (stereo not drawn): the result in test [1] and in test [2] was Active.

As to `O=c1cc(O)cc(/C=C/c2ccc(O)c(O)c2)o1`, in test [1], the outcome was Active. Besides, in test [2], the outcome was inactive.

With `CC(=O)/C=C(O)/C(=C\c1ccc(O)c(O)c1)c1c(O)cc(/C=C/c2ccc(O)c(O)c2)oc1=O`, the outcome in test [1] and in test [2] was Active.

Turning to `CC1=CC(=O)[C@H](c2c(O)cc(/C=C/c3ccc(O)c(O)c3)oc2=O)[C@@H](c2ccc(O)c(O)c2)O1` [DAVALLIALACTONE], the result in test [1] and in test [2] was Active. The IC50 (usually the midpoint of a concentration-inhibition curve) in test [3] came to 1.2 µM; in test [4], 2.8 µM.

Values taken from ChEMBL document CHEMBL1221351, “Styrylpyrones from the medicinal fungus Phellinus baumii and their antioxidant properties” (Bioorg Med Chem Lett, 2010).
